Laboratory results as given in patent US7053175B1, “Synthetic peptides useful in biological assays for detecting infections caused by group O HIV-1 viruses” (Bio-Rad Pasteur, priority 1997, dated 2006).
No end group written: not given here.

Tested on: sera from patients infected with group O HIV-1 retroviruses
Test: Immunoenzymatic test: Test No. 1 (immunoreactivity of peptides coated on microplates)
Type: binding, human
Set-up: key to ABSORBANCE: >: signal greater than the reading capacity of the spectrophotometer
Conditions: for ABSORBANCE: cyclized peptide 2 μg/ml
Protocol: The sera used ESS, DUR, VAU and HAD are sera from French patients infected with group O HIV-1 retroviruses. The other serum samples from patients infected with group O HIV-1 retroviruses were obtained by the Yaoundé Pasteur Centre in Cameroon and were serotyped group O according to the serological algorithm described in AIDS (1977), 11, pp 445-453.
The HIV-negative sera (n=48) were obtained from healthy volunteers.
The synthetic peptides used were dissolved in water at a concentration of 1 mg/ml (stock solution). For the solid phase sensitization step (coating), 110 μl of a solution at 2 μg/ml of each peptide (obtained by diluting the stock solution with 0.1 M carbonate buffer solution) were added to each well of the microtitre plates Microtiter™ (NUNC). After incubating overnight at room temperature, the microplates were first washed with a Tris-NaCl buffer solution pH 7.4 containing 0.1% of Tween® 20 and 0.001% sodium merthiolate, and then saturated with a PBS solution containing 0.5% of Régilait™ (dried skimmed milk). After aspirating the saturating solution, the plates were heated for 10 min at 50° C.
The serum samples were diluted 1/5 with a skimmed milk solution (citrate buffer supplemented with 0.01% of phenol red, 0.25% of chloroform and 0.25% of Kathon®), deposited in the wells of the plates and incubated for 30 min at 40° C.
After washing with a Tris-NaCl buffer solution pH 7.4 containing 0.1% of Tween® 20 and 0.001% of sodium merthiolate, 100 μl of a solution of conjugate consisting of horseradish peroxidase-labelled anti-human IgG and IgM goat antibodies, containing as preservative 0.01% of sodium merthiolate, in solution in a citrate buffer solution supplemented with 30% glycerol and 25% normal foetal calf serum, were added to each plate well and then the plates were incubated for 30 min at 40° C.
After washing with a Tris-NaCl buffer solution pH 7.4 containing 0.1% of Tween® 20 and 0.001% of sodium merthiolate, the colour was developed by adding, to each well, 100 μl of O-phenylenediamine in solution in hydrogen peroxide. The microplates were then incubated for 30 min at room temperature and in the dark. The coloured reaction was then stopped by addition of 100 μl of 4N sulphuric acid. The absorbance (A) was determined at 490 and 620 nm.
The relative absorbance (A490-A620) read in each well is proportional to the immunoreactivity of each peptide. It indicates the ability of each peptide to react with the biological sample with which the test is carried out. The cut-off value was determined as being an absorbance equal to 0.15. It corresponds to the mean of the negative values (n=48) plus 12 standard deviations.
The reactivity of the peptides of the invention (peptide No. 3 (4B), peptide No. 2 (3B) and peptide No. 1 (2B), all in cyclized form), was compared with that of two synthetic peptides having, as sequence, a portion of the natural sequence of the envelope (env) of the VAU isolate (group O HIV-1 retrovirus) and comprising an immunodominant epitope of gp41.
For the study, these peptides were used in cyclized form.

With “RLLALETFIEENELLNLWGCKNRAICYTSVKWNKT (cysteine pairing not given here) [VAU 35 AA, reference compound]” the ABSORBANCE (serum 134) was “>”, the ABSORBANCE (serum 402) was “>” and the ABSORBANCE (serum 625) was 2.585. The ABSORBANCE (serum 1062) was “>”, the ABSORBANCE (serum 1105*) was 0.129 and the ABSORBANCE (serum 1581) was 0.894. The ABSORBANCE (serum 1702) was “>”, the ABSORBANCE (serum 1754) was 1.948 and the ABSORBANCE (serum 2294) was “>”. For the same sequence, the ABSORBANCE (serum 2312) was “>”, the ABSORBANCE (serum 2313) was “>” and the ABSORBANCE (serum 2352) was “>”. The ABSORBANCE (serum 2551) was “>”, the ABSORBANCE (serum 2700) was “>” and the ABSORBANCE (serum 3016) was “>”. For the same sequence, the ABSORBANCE (serum 3136) was “>”, the ABSORBANCE (serum 3235) was “>” and the ABSORBANCE (serum 3236) was “>”. The ABSORBANCE (serum 3302) was “>”, the ABSORBANCE (serum 3482) was “>” and the ABSORBANCE (serum 3529) was “>”. The ABSORBANCE (serum 3600*) was “>”, the ABSORBANCE (serum 3627*) was “>” and the ABSORBANCE (serum 3637) was 1.647. The ABSORBANCE (serum 3653) was 1.322, the ABSORBANCE (serum 3771) was “>” and the ABSORBANCE (serum 3884*) was “>”. The ABSORBANCE (serum 3891) was “>”, the ABSORBANCE (serum 3935) was 0.227 and the ABSORBANCE (serum 3945) was “>”. For the same sequence, the ABSORBANCE (serum 4021*) was 1.957, the ABSORBANCE (serum 4364) was “>” and the ABSORBANCE (serum 4434) was “>”. For the same sequence, the ABSORBANCE (serum 4477) was “>”, the ABSORBANCE (serum 4489*) was 1.718 and the ABSORBANCE (serum 5149*) was “>”. For the same sequence, the ABSORBANCE (serum 5164) was “>”, the ABSORBANCE (serum 5210) was “>” and the ABSORBANCE (serum 5270*) was “>”. The ABSORBANCE (serum 5373) was 0.856, the ABSORBANCE (serum 5453) was 1.482 and the ABSORBANCE (serum 5766*) was “>”. For the same sequence, the ABSORBANCE (serum 5931) was 2.225, the ABSORBANCE (serum 5969*) was “>” and the ABSORBANCE (serum 6111) was “>”. For the same sequence, the ABSORBANCE (serum 6165) was “>”, the ABSORBANCE (serum 6198*) was “>” and the ABSORBANCE (serum 6295*) was “>”. For the same sequence, the ABSORBANCE (serum 6487) was 2.891, the ABSORBANCE (serum 6512*) was 0.174 and the ABSORBANCE (serum 6627) was “>”. The ABSORBANCE (serum 6689*) was “>”, the ABSORBANCE (serum 6697) was “>” and the ABSORBANCE (serum 6782) was 2.214. For the same sequence, the ABSORBANCE (serum 6891) was 0.496, the ABSORBANCE (serum 6976*) was “>” and the ABSORBANCE (serum 6998) was “>”. For the same sequence, the ABSORBANCE (serum 7007) was 2.151, the ABSORBANCE (serum 7120) was “>” and the ABSORBANCE (serum 7212) was “>”. The ABSORBANCE (serum 7258*) was “>”, the ABSORBANCE (serum 7297*) was “>” and the ABSORBANCE (serum 7439) was “>”. The ABSORBANCE (serum 7443) was 0.574, the ABSORBANCE (serum DUR*) was 0.872 and the ABSORBANCE (serum ESS*) was “>”. For the same sequence, the ABSORBANCE (serum HAD) was 0.871 and the ABSORBANCE (serum VAU*) was “>”.
“LLSLWGCRGKAVCYTSVQWNET [PEPTIDE No. 1 (2B)]” was tested, and the ABSORBANCE (serum 134) was “>”, the ABSORBANCE (serum 402) was “>” and the ABSORBANCE (serum 625) was “>”. The ABSORBANCE (serum 1062) was “>”, the ABSORBANCE (serum 1105*) was “>” and the ABSORBANCE (serum 1581) was “>”. For the same sequence, the ABSORBANCE (serum 1702) was 1.162, the ABSORBANCE (serum 1754) was “>” and the ABSORBANCE (serum 2294) was 0.447. The ABSORBANCE (serum 2312) was “>”, the ABSORBANCE (serum 2313) was “>” and the ABSORBANCE (serum 2352) was 0.205. The ABSORBANCE (serum 2551) was “>”, the ABSORBANCE (serum 2700) was “>” and the ABSORBANCE (serum 3016) was 0.243. The ABSORBANCE (serum 3136) was 0.302, the ABSORBANCE (serum 3235) was “>” and the ABSORBANCE (serum 3236) was “>”. The ABSORBANCE (serum 3302) was 0.386, the ABSORBANCE (serum 3482) was 1.473 and the ABSORBANCE (serum 3529) was 1.803. The ABSORBANCE (serum 3600*) was 2.743, the ABSORBANCE (serum 3627*) was 2.910 and the ABSORBANCE (serum 3637) was “>”. For the same sequence, the ABSORBANCE (serum 3653) was 0.044, the ABSORBANCE (serum 3771) was 0.544 and the ABSORBANCE (serum 3884*) was 1.839. The ABSORBANCE (serum 3891) was 2.780, the ABSORBANCE (serum 3935) was 0.307 and the ABSORBANCE (serum 3945) was “>”. The ABSORBANCE (serum 4021*) was “>”, the ABSORBANCE (serum 4288*) was 2.802 and the ABSORBANCE (serum 4364) was 1.382. The ABSORBANCE (serum 4434) was “>”, the ABSORBANCE (serum 4477) was “>” and the ABSORBANCE (serum 4489*) was “>”. For the same sequence, the ABSORBANCE (serum 5149*) was “>”, the ABSORBANCE (serum 5164) was “>” and the ABSORBANCE (serum 5210) was “>”. For the same sequence, the ABSORBANCE (serum 5270*) was “>”, the ABSORBANCE (serum 5373) was “>” and the ABSORBANCE (serum 5453) was “>”. For the same sequence, the ABSORBANCE (serum 5766*) was “>”, the ABSORBANCE (serum 5931) was “>” and the ABSORBANCE (serum 5969*) was “>”. For the same sequence, the ABSORBANCE (serum 6111) was “>”, the ABSORBANCE (serum 6165) was 2.714 and the ABSORBANCE (serum 6198*) was “>”. The ABSORBANCE (serum 6295*) was “>”, the ABSORBANCE (serum 6487) was 2.687 and the ABSORBANCE (serum 6512*) was “>”. The ABSORBANCE (serum 6627) was “>”, the ABSORBANCE (serum 6689*) was “>” and the ABSORBANCE (serum 6697) was “>”. The ABSORBANCE (serum 6782) was 2.462, the ABSORBANCE (serum 6891) was 0.062 and the ABSORBANCE (serum 6976*) was “>”. The ABSORBANCE (serum 6998) was “>”, the ABSORBANCE (serum 7007) was “>” and the ABSORBANCE (serum 7120) was “>”. The ABSORBANCE (serum 7212) was “>”, the ABSORBANCE (serum 7258*) was 2.477 and the ABSORBANCE (serum 7297*) was “>”. For the same sequence, the ABSORBANCE (serum 7439) was “>”, the ABSORBANCE (serum 7443) was “>” and the ABSORBANCE (serum DUR*) was “>”. For the same sequence, the ABSORBANCE (serum ESS*) was 2.494, the ABSORBANCE (serum HAD) was 0.041 and the ABSORBANCE (serum VAU*) was “>”. For the same sequence, the “immunoreactivity compared with the other peptides (in words)” value (summary of Table IV) was “more immunoreactive than the VAU 22 AA peptide”.
